# From patent publication US12414927B2, “CXCR5 antagonists and methods of treating diseases or disorders using same” (YALE UNIVERSITY, priority 2020, dated 2025)
# “Also recorded” adds a separate entry of the source.
# How the values were obtained:
# [1] = molecular target: T1, human CXCR5 (Homo sapiens, UniProt P32302); test: Calcium assay: inhibition of Gaq-mediated Ca2+ flux at an EC80 of CXCL13 agonist; format: cell-based; details: HEK-293 cells transfected with human CXCR5, in the presence or absence of BSA
# T1 construct: expressed in transfected cells; host or cells: HEK-293 (division-arrested, stably expressing)
# T1 sequence (P32302 1-372): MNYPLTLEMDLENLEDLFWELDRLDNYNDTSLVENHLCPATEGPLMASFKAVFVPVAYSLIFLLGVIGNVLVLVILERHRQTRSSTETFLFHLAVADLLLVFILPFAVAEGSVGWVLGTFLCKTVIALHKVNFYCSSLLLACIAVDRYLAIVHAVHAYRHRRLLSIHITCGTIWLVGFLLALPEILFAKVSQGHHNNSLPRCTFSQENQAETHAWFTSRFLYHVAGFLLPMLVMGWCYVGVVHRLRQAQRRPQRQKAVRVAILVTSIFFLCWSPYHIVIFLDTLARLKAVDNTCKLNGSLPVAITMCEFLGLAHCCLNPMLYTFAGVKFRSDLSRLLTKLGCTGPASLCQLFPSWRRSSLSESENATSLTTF
# Protocol: FIGS. 1A-1B illustrate inhibition of Gaq-mediated Ca^2+ flux for certain compounds of the disclosure. The assays use HEK cells stably expressing functional human CXCR5 and measure inhibition of Gaq-mediated Ca^2+ flux at an EC80 of CXCL13 agonist. Assays were performed in HBSS buffer (FIG. 1A) and HBSS buffer+1% BSA (FIG. 1B); the compounds were active in the presence of the bovine serum albumin, without significant change in an IC50 value. Compound 1 is 2-(3-methyl-2-(2-methylprop-1-en-1-yl)benzamido)-2,3-dihydro-1H-indene-2-carboxylic acid; Compound 2 is 2-(2-isobutyl-3-methylbenzamido)-2,3-dihydro-1H-indene-2-carboxylic acid.
# (§1) These assays were performed in division-arrested HEK-293 cells transfected with human CXCR5. The CXCL13 ligand was used as agonist.
# The calcium assay allows homogeneous measurement of intracellular calcium changes caused by activation of G-protein coupled receptors or calcium channels.
# For adherent cells, plate 50K to 70K cells/well for a 96 well plate and 12K to 20K cells/well for a 384 well plate the day before the experiment. Add 100 μl/well of cell suspension to 96-well plates or 25 μl/well to 384-well plates, allow cells to attach and grow overnight for 16 to 24 hours in cell culture incubators. Prior to dye loading the plate, examine the cells for confluency and overall health.
# 1. […]
# [2] = molecular target: T1, human CXCR5; test: Cyclic AMP assay: inhibition of Gai-mediated decrease of cAMP at an EC80 of CXCL13; format: cell-based; details: HEK-293 cells transfected with human CXCR5, in the presence or absence of BSA
# Protocol: FIGS. 2A-2B illustrate inhibition of Gat-mediated decrease of cAMP for certain compounds of the disclosure. The assays use HEK cells stably expressing functional human CXCR5 and measure inhibition of Gat-mediated decrease of cAMP at an EC80 of CXCL13. Assays were performed in HBSS buffer (FIG. 2A) and HBSS buffer+1% BSA (FIG. 2B); the compounds were active in the presence of the bovine serum albumin, without significant change in an IC50 value.
# as §1
# [3] = test system: Raji cell line; test: Proliferation of CXCR5-expressing Burkitt's B-cell lymphoma cell line over 7 days; format: cell-based; details: 7-day period, media containing 5% FBS, various doses, DMSO negative control
# Description: FIG. 3 illustrates proliferation of the CXCR5-expressing Burkitt's B-cell lymphoma cell line (Raji cell line) over a 7-day period in the media containing 5% FBS in the presence of various doses of Compound 2 or Compound 3 (1-(2-isobutyl-3-methylbenzamido)-2,3-dihydro-1H-indene-1-carboxylic acid). […] DMSO is shown as a negative control.
# At this time a Tfh or AITL cell line has not been developed. Thus, a B-cell lymphoma cell line (Raji) was used to determine whether the contemplated compounds can inhibit proliferation. In this experiment, Compound 2 was compared to analogue Compound 3 over a 7-day period (FIG. 3).
# [4] = Preliminary toxicity/tolerability study, 40 mg/kg BID by oral gavage; format: in vivo, NSG mice
# Protocol: FIG. 8 illustrates absolute body weight for mice treated with Compound 2, 40 mg/kg BID. 5 NSG mice (highly immunodeficient, same strain as in the in vivo efficacy study) were tested. Compound 2 was administered via oral gavage, BID (twice a day) for 14 days. […] Body weight was monitored daily. Mean body weight loss was <4%, confirming tolerability.
# It was decided that a dose of 40 mg/kg would be used in the AITL PDX studies (design outlined in FIG. 6). Prior to the study, preliminary 1-week toxicity studies were performed on the NSG immunocompromised mice (NOD/SCID, IL-2R knockout) that would be used on the AITL PDX study (FIG. 8).
# [5] = molecular target: T1, human CXCR5; test: Binding to human CXCR5
# [6] = test system: patient-derived AITL tissue; test: In vivo efficacy in AITL patient-derived xenograft (human CD45+ cells)
# Protocol: FIGS. 9A-9B illustrate CD45 levels in bone marrow (FIG. 9A) and peripheral blood (FIG. 9B) of mice treated with Compound 2 or vehicle. […] (NOD/SCID, IL-2R knockout) mice (8 animals per group) were implanted with patient-derived AITL tissue. Compound 2 binds to human but not to murine CXCR5. Animals were treated with vehicle or 40 mg/kg Compound 2 via oral gavage 2×/day. t test comparing all mice at the time of sacrifice was performed to analyze the data. Error bars—SEM.
# For in vivo efficacy study, mice were implanted with AITL PDX and engraftment levels were quantified in each animal as circulating human CD45+ cells levels in blood. Dosing began when average engraftment reached 0.13%, and the cohort was treated for 42 days. The mice were monitored weekly for weight loss and daily for any clinical mortality observation. Only 1 treated mouse lost weight (14%) during the first week but gained it back and was otherwise stable similar to the other mice. Blood was drawn at 0, 14, and 28 days after the dosing started, and before euthanasia to measure tumor burden. […] When mice were sacrificed, various organs were removed and stored at −80° C. At the end of the study (42 days of dosing), 3 and 5 mice treated with vehicle or Compound 2, respectively, were still alive. […] The absolute percentage in the blood was 44.5% and 57.6% for treated and untreated mice, respectively.
# PDX was implanted into immunocompromised NSG mice.
# Starting at around 21 days after implantation, animals are examined for engraftment every 1-2 weeks. Engraftment is determined by measuring human CD45+ cells in blood (flow cytometry).
# After engraftment is observed, animals are dosed by oral gavage every 10-14 hours with vehicle (untreated groups) or with compound YU241279 at 40 mg/kg (treated groups).
# Animals are evaluated for general health daily and weighed twice per week; circulating human CD45+ cells are measured on days 14 and 28 after treatment initiation to evaluate tumor progression. Based on day 28 analysis, treatment may be extended (the decision to extend the dosing is based on the health status of the vehicle group: CD45 (<50%), lack of morbidity by day 28); Readouts at conclusion of the study include spleen weight, survival, and flow cytometry assessment for human CD45+ cells in blood and bone marrow.
# [7] = In vivo PK, single dose by IV, PO or IP route
# Protocol: Three groups of 30 mice (male, CD-1) were dosed via one route per group (PO, IP, or IV). Single dose level was used per route of administration. Dosing level (mg/kg): IV (1 mg/kg); PO (10 mg/kg); and IP (10 mg/kg). […] Blood collections were terminal for each mouse, so triplicate data was obtained for each time point.
# [8] = molecular target: T2, murine CXCR5 (Mus musculus, UniProt Q04683); test: Binding to murine CXCR5
# T2 sequence (Q04683 1-374): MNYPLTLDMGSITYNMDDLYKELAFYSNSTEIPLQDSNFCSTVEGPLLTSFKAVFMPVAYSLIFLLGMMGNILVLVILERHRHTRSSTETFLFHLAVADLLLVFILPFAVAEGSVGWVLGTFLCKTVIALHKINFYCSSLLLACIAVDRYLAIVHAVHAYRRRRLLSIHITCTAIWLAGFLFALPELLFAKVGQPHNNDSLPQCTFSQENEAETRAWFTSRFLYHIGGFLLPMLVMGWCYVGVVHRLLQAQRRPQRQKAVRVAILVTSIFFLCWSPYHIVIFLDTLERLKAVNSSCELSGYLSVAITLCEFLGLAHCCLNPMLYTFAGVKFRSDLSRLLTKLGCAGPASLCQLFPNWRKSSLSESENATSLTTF
# [9] = In vivo PK, oral doses of 10, 30 and 60 mg/kg; set-up: species or system female CB.17 SCID mice; details: oral 10, 30 and 60 mg/kg
# Protocol: FIG. 5 illustrates in vivo PK results for multiple doses of Compound 2 administered orally. 9 female CB.17 SCID mice per group were used except for vehicle control group, where 15 mice were tested. Three drug doses were used (10, 30 and 60 mg/kg), with dosing volume of 10 mL/kg (0.200 mL/20 g mouse) for each dose. Volume was adjusted for body weight, and analysis was run at 6 different time points.
# (§2) For suitability of murine AITL patient derived xenografts (PDX) studies, pharmacokinetics (PK) of Compound 2 were determined by IV, oral, and IP administration (FIG. 4). These parameters provided confidence for oral administration studies at different doses and are suitable for further PK studies at 24-hour measurement at different oral doses. The study allowed one to determine the dose that results in a blood level of ˜IC80.
# [10] = 10-day oral dosing PK/tolerability study, 30 mg/kg every 12 hours; format: in vivo, female CB.17 SCID mice
# Protocol: FIG. 6 illustrates a dosing scheme for oral administration of Compound 2 over 10 days. Female CB.17 SCID mice were dosed according to the table shown: Groups 1-2 were treated with the drug and Group 3 animals were treated with vehicle control. Mice were orally dosed at 30 mg/kg every 12 hours for 10 days. Group 2 (18 animals total, alternating animals) were used for PK blood analysis, and Group 1 (5 animals total) were sacrificed at end point for gross necropsy.
# FIGS. 7A-7B illustrate in vivo PK results for multiple doses of Compound 2 (30 mg/kg) administered orally over 10 days. […] No change in slope of decrease indicated no change in rate of metabolism.
# as §2
# [11] = 40 mg/kg oral gavage BID for 14 days, 5 NSG mice
# [12] = 40 mg/ml (so in the source), NSG mice
# [13] = at death, 40 mg/kg oral, treated mice
smiles,measurement,setting,value
"CC(C)=Cc1c(C)cccc1C(=O)NC1(C(=O)O)Cc2ccccc2C1 [Compound 1, 2-(3-methyl-2-(2-methylprop-1-en-1-yl)benzamido)-2,3-dihydro-1H-indene-2-carboxylic acid]",activity in calcium assay (inhibition of Gaq-mediated Ca2+ flux),[1],sub-micromolar
same,activity in cyclic AMP assay (inhibition of decrease of cAMP),[2],sub-micromolar
"Cc1cccc(C(=O)NC2(C(=O)O)Cc3ccccc3C2)c1CC(C)C [Compound 2, 2-(2-isobutyl-3-methylbenzamido)-2,3-dihydro-1H-indene-2-carboxylic acid]",proliferation of Raji cells,[3],dose-dependent decrease in proliferation; also recorded: clearly inhibited proliferation
same,mean body weight loss,[4]; [11],< 4%
same,morbidity,[4]; [11],No morbidity was observed
same,body weight gain compared with vehicle,[4]; [12],did not gain weight as fast as the mice treated with vehicle
same,other abnormalities,[4]; [12],no other abnormalities observed
same,binding to human CXCR5,[5],binds
same,tumor loads in peripheral blood and bone marrow compared to vehicle control,"[6]; 40 mg/kg oral gavage 2x/day, at time of sacrifice",Significantly reduced tumor loads
same,mice still alive at the end of the study,"[6]; 42 days of dosing, 8 animals per group",5
same,absolute percentage of human CD45+ in the blood,[6]; [13],44.5%
same,absolute percentage of human CD45+ in the bone marrow,[6]; [13],10.6%
same,weight loss of the only treated mouse that lost weight,"[6]; first week of dosing, 1 treated mouse, regained afterwards",14%
same,clinical observations,[7]; IV arm subsequently dosed at 0.2 mg/mL delivered at 5 mL/kg,without any adverse observations
same,clinical observations,"[7]; original IV group, single dose","labored breathing, decreased activity, and death"
same,bioavailability,[7]; pharmacokinetic study in mice,confirmed bioavailability
same,binding to murine CXCR5,[8],not
same,compound blood level versus compound amount administered,[9],clear increase in compound blood level versus compound amount administered
same,tolerability,[10]; 10-day study at 30 mg/kg oral,demonstrated tolerability
same,health of animals,"[10]; oral 30 mg/kg every 12 hours for 10 days, during dosing and for 2 weeks following",good health
same,change of compound metabolism over dosing period,"[10]; oral 30 mg/kg every 12 hours, 10 days, first two doses versus 20th dose, 30 mg/kg",compound metabolism was unchanged; also recorded: no change metabolism
same,blood levels relative to IC50 between doses,"[10]; oral 30 mg/kg, 12 hours between doses",remained above IC50 for full 12 hours
same,activity in calcium assay (inhibition of Gaq-mediated Ca2+ flux),[1],sub-micromolar
same,activity in cyclic AMP assay (inhibition of decrease of cAMP),[2],sub-micromolar
"Cc1cccc(C(=O)NC2(C(=O)O)CCc3ccccc32)c1CC(C)C (stereo not shown) [Compound 3, 1-(2-isobutyl-3-methylbenzamido)-2,3-dihydro-1H-indene-1-carboxylic acid]",proliferation of Raji cells,[3],less potent than Compound 2
